This is an account of results in patent US4477451A, “5,6-Dihydro-11-methylenemorphanthridin-6-ones, their preparation and drugs containing these compounds” (BASF Aktiengesellschaft, priority 1982, dated 1984).

The assay deals with gastric ulcers (ulcerous mucosal lesions). The experiment in a line: antiulcerogenic action on the rat (reserpine/indometacin/cold-induced gastric ulcers, oral test substance). The format is in vivo, female Sprague-Dawley rats. The following applies: for ED50: Rattus norvegicus, oral, dose which reduces the ulcerous area by 50%, reserpine 1 mg/kg i.p., indometacin 21.5 mg/kg i.p., 6 hours at 8° C., read-out: Antiulcerogenic action on the rat, ED 50%; for Antiulcerogenic action on the rat, Relative activity: relative to pirenzepine = 1.0. On the procedure: To investigate the antiulcerogenic action, 1 mg/kg of reserpine is administered intraperitoneally to groups of 10 female Sprague-Dawley rats each weighing 160-180 g, and the rats then remain without food for 18 hours (water ad libitum). This period is followed by intraperitoneal administration of 21.5 mg/kg of indometacin and oral administration of the test substance to the animals, which are then kept for 6 hours at 8° C., after which they are sacrificed. The stomachs are removed, and the area of ulcerous mucosal lesions is determined. The dose which reduces the ulcerous area by 50%, ie. the ED 50%, is determined from the linear regression between the logarithms of the doses administered and the relative reduction in the area of ulcerations, based on the control animals.
Pirenzepine (5,11-dihydro-11-[(4-methylpiperazin-1-yl)-acetyl]-6H-pyrido[2,3-b][1,4]benzodiazepin-6-one; German Pat. No. 1,795,183) is used as the reference substance.

With `O=C(C=C1c2ccccc2NC(=O)c2ccccc21)OCCN1CCOCC1` (mixture of isomers) [Example 1, cis,trans-11-(2-Morpholin-1-yl)-ethoxycarbonylmethylene-5,6-dihydromorphanthridin-6-one], the ED50 turned out to be 1.9 mg/kg and the “Antiulcerogenic action on the rat, Relative activity” value is on record as 3.4.
Regarding `CN(C)CCOC(=O)C=C1c2ccccc2NC(=O)c2ccccc21` (mixture of isomers) [Example 2, cis,trans-11-(2-Dimethylamino)-ethoxycarbonylmethylene-5,6-dihydromorphanthridin-6-one], the ED50 worked out at 0.64 mg/kg and the “Antiulcerogenic action on the rat, Relative activity” value is reported as 10.2.
`O=C(C=C1c2ccccc2NC(=O)c2ccccc21)OCCCN1CCOCC1` (mixture of isomers) [Example 14, cis,trans-11-(3-Morpholin-1-yl)-propoxycarbonylmethylene-5,6-dihydromorphanthridin-6-one]: the ED50 was 0.83 mg/kg and the “Antiulcerogenic action on the rat, Relative activity” value was 7.8.
For `O=C(/C=C1/c2ccccc2NC(=O)c2ccccc21)OCCN1CCOCC1` [Example 1, cis, cis-11-(2-morpholin-1-yl)-ethoxycarbonylmethylene-5,6-dihydromorphanthridin-6-one], in that order: 1.5 mg/kg and 4.3.
As for `O=C(/C=C1\c2ccccc2NC(=O)c2ccccc21)OCCN1CCOCC1` [Example 1, trans, trans-11-(2-morpholin-1-yl)-ethoxycarbonylmethylene-5,6-dihydromorphanthridin-6-one], the ED50 amounted to 5.3 mg/kg and the “Antiulcerogenic action on the rat, Relative activity” value is on record as 1.2.
In the case of `CN1CCN(CC(=O)N2c3ccccc3C(=O)Nc3cccnc32)CC1` [pirenzepine, 5,11-dihydro-11-[(4-methylpiperazin-1-yl)-acetyl]-6H-pyrido[2,3-b][1,4]benzodiazepin-6-one, reference compound], the ED50 is 6.5 mg/kg.
